# How the values were obtained:
# Assay in all cases: relative viability (nuclei count vs DMSO), 5 days (fraction); higher = more cells survive
# Axitinib + Tozasertib = compound: CNC(=O)c1ccccc1Sc1ccc2c(/C=C/c3ccccn3)n[nH]c2c1 [Axitinib] + Cc1cc(Nc2cc(N3CCN(C)CC3)nc(Sc3ccc(NC(=O)C4CC4)cc3)n2)n[nH]1 [Tozasertib] (partner 0.1 µM)
# Method in brief: (§1)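 Relative viability divides the nuclei count in treated wells by that in vehicle wells. Lung cancer cell lines were seeded in 1536-well plates, dosed by pin tool the next day, and fixed and stained after 5 days in one step with final 0.05% Triton X-100, 1% formaldehyde and 1 ug/ml Hoechst. Dosing was a single drug or a fixed anchor-drug dose plus five library-drug doses (not always all listed) in √10 steps, and values are medians of duplicate plates imaged at 4×.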
# Axitinib + Phenformin = compound: CNC(=O)c1ccccc1Sc1ccc2c(/C=C/c3ccccn3)n[nH]c2c1 [Axitinib] + N=C(N)NC(=N)NCCc1ccccc1 [Phenformin] (partner 250 µM)
# Method in brief: as §1
# Axitinib + AZD7762 = compound: CNC(=O)c1ccccc1Sc1ccc2c(/C=C/c3ccccn3)n[nH]c2c1 [Axitinib] + NC(=O)Nc1cc(-c2cccc(F)c2)sc1C(=O)N[C@H]1CCCNC1 [AZD7762] (partner 0.2 µM)
# Method in brief: as §1
# [1] = compound: CC1=CC=C(C=C1)C(=O)CN2C3=C(CCCC3)SC2=N [Pifithrin_alpha] + CCNC(=O)c1noc(-c2cc(C(C)C)c(O)cc2O)c1-c1ccc(CN2CCOCC2)cc1 [Luminespib] (partner 0.01 µM)
# Method in brief: as §1
Cell Line,relative viability (Axitinib + Tozasertib; first compound 0.005 µM),relative viability (Axitinib + Tozasertib; first compound 0.01581 µM),relative viability (Axitinib + Tozasertib; first compound 0.05 µM),relative viability (Axitinib + Tozasertib; first compound 0.1581 µM),relative viability (Axitinib + Tozasertib; first compound 0.5 µM),relative viability (Axitinib + Phenformin; first compound 0.005 µM),relative viability (Axitinib + Phenformin; first compound 0.01581 µM),relative viability (Axitinib + Phenformin; first compound 0.05 µM),relative viability (Axitinib + Phenformin; first compound 0.1581 µM),relative viability (Axitinib + Phenformin; first compound 0.5 µM),relative viability (Axitinib + AZD7762; first compound 0.005 µM),relative viability (Axitinib + AZD7762; first compound 0.01581 µM),relative viability (Axitinib + AZD7762; first compound 0.05 µM),relative viability (Axitinib + AZD7762; first compound 0.1581 µM),relative viability (Axitinib + AZD7762; first compound 0.5 µM),relative viability ([1]; first compound 1 µM),relative viability ([1]; first compound 3.162 µM),relative viability ([1]; first compound 10 µM),relative viability ([1]; first compound 31.62 µM),relative viability ([1]; first compound 100 µM)
HCC-827,0.443,0.417,0.424,0.466,0.449,0.408,0.4,0.419,0.381,0.459,0.195,0.129,0.176,0.212,0.214,0.747,0.741,0.803,0.439,0.863
HOP-62,0.38,0.414,0.343,0.44,0.577,0.73,0.63,0.742,0.665,0.853,0.654,0.548,0.592,0.728,0.97,1.07,1.05,1.04,0.776,1.19
LC-2-ad,0.425,0.479,0.396,0.425,0.53,0.578,0.592,0.586,0.527,0.498,0.845,0.845,0.834,0.841,0.952,–,1.14,1.01,–,0.601
LCLC-97TM1,0.251,0.271,0.276,0.415,0.393,0.458,0.381,0.43,0.47,0.314,0.22,0.327,0.218,0.281,0.374,0.742,0.783,0.774,0.423,0.808
LCLC-103H,0.52,0.551,0.432,0.52,0.519,0.32,0.341,0.345,0.356,0.312,0.843,0.752,0.816,0.836,0.674,0.947,0.994,0.894,0.789,0.996
LK-2,0.176,0.161,0.198,0.162,0.174,0.674,0.202,0.481,0.353,0.293,0.385,0.335,0.279,0.447,0.307,0.219,0.179,0.171,–,0.229
NCI-H520,0.401,–,0.439,0.417,0.347,0.489,0.404,0.655,0.362,0.386,–,–,–,–,–,0.213,0.21,0.24,–,0.223
NCI-H661,0.351,0.363,0.363,0.359,0.371,0.281,0.29,0.271,0.267,0.285,–,–,–,–,–,0.912,0.915,0.949,0.881,0.921
NCI-H1563,–,–,–,–,–,0.778,0.654,0.625,0.616,0.667,–,–,–,–,–,0.489,0.549,0.47,0.467,0.539
NCI-H1623,0.457,0.506,0.432,0.498,0.45,0.669,0.585,0.315,0.613,0.6,–,–,–,–,–,0.464,0.285,0.339,0.318,0.322
NCI-H1648,0.506,0.643,–,0.483,0.602,–,–,–,–,–,0.725,0.57,0.666,0.733,0.682,–,–,–,–,–
NCI-H1650,0.448,0.382,0.49,0.411,0.482,0.488,0.309,0.553,0.352,0.536,–,–,–,–,–,–,0.223,0.176,0.209,0.169
NCI-H1703,–,–,–,–,–,–,–,–,–,–,0.135,0.11,0.118,0.121,0.125,–,–,–,–,–
NCI-H1792,–,–,–,–,–,0.323,–,–,0.304,0.186,0.72,0.629,0.777,0.755,1.03,0.323,0.666,0.284,0.219,0.271
NCI-H2009,0.76,0.815,0.708,0.786,1.08,0.492,0.497,0.506,0.513,0.577,–,–,–,–,–,1.07,1.04,0.926,0.701,0.967
NCI-H2023,0.368,0.395,0.38,0.483,0.604,0.426,0.436,0.467,0.372,0.473,–,–,–,–,–,0.544,0.637,0.364,0.277,0.34
NCI-H2228,0.266,0.289,0.308,0.293,0.291,0.324,0.326,0.412,0.36,0.269,–,–,–,–,–,0.145,0.15,0.178,0.149,0.124
SK-LU-1,0.41,0.345,0.333,0.375,0.47,0.601,0.597,0.622,0.558,0.752,–,–,–,–,–,0.216,0.188,0.213,–,0.165
SK-MES-1,0.996,0.904,0.818,0.947,1.07,0.65,0.653,0.654,0.631,0.738,–,–,–,–,–,0.644,0.698,0.478,0.262,0.286
SW 1573,0.169,0.214,0.166,0.178,0.249,0.465,0.37,0.398,0.295,0.408,–,–,–,–,–,0.245,0.214,0.188,–,0.175
UMC-11,0.211,0.195,0.2,0.202,0.206,0.343,0.353,0.322,0.326,0.34,–,–,–,–,–,0.98,1.22,1.36,1.08,1.48

# Source: the supplement of paper PMC10307832
